# Test results from patent US9695155B2, “Herbicidal substituted pyrimidinyloxy benzene compounds” (E. I. DU PONT DE NEMOURS AND COMPANY, priority 2013, dated 2017).
# Tests used:
# morningglory [1] = experiment: Test A preemergence; assay type: in vivo, Ipomoea spp.; conditions: for Plant response rating, Morningglory: 125 g ai/ha, 0 to 100 scale where 0 is no effect and 100 is complete control; for Morningglory plant response rating: 0 to 100 scale, 0 no effect, 100 complete control, approx. 10 days
# Summary of the method: (§1)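 Visual 0–100 rating (100 = complete control) taken about 10 d post-treatment relative to untreated checks. Preemergence: directed soil spray on sown loam/sand pots. Postemergence: seedlings 2–10 cm, 1–2 leaf. Non-phytotoxic solvent formulation with surfactant.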
# giant foxtail [2] = experiment: Test A postemergence; assay type: in vivo, Setaria faberii
# Summary of the method: as §1
# rice = experiment: Test B flooded paddy test; assay type: in vivo, Oryza sativa; conditions: Flood, 250 g ai/ha; 0 to 100 scale where 0 is no effect and 100 is complete control
# Summary of the method: (§2)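 Compound added straight to paddy water, with pots kept flooded 3 cm above soil, on plants grown to the 2-leaf stage. Visual scoring 0-100 (100 = complete control) against untreated controls after 13 to 15 greenhouse days.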
# morningglory [3] = experiment: Test A postemergence; assay type: in vivo, Ipomoea spp.
# Summary of the method: as §1
# sedge, umbrella = experiment: Test B flooded paddy test; assay type: in vivo, Cyperus difformis; conditions: Flood, 250 g ai/ha; 0 to 100 scale where 0 is no effect and 100 is complete control
# Summary of the method: as §2
# wheat [4] = experiment: Test A preemergence; assay type: in vivo, Triticum aestivum; conditions: for Plant response rating, Wheat: 125 g ai/ha, 0 to 100 scale where 0 is no effect and 100 is complete control; for Wheat plant response rating: 0 to 100 scale, 0 no effect, 100 complete control, approx. 10 days
# Summary of the method: as §1
# pigweed [5] = experiment: Test A postemergence; assay type: in vivo, Amaranthus retroflexus
# Summary of the method: as §1
# wheat [6] = experiment: Test A postemergence; assay type: in vivo, Triticum aestivum
# Summary of the method: as §1
# Heteranthera limosa = experiment: Test B flooded paddy test; assay type: in vivo; conditions: Flood, 250 g ai/ha; 0 to 100 scale where 0 is no effect and 100 is complete control
# Summary of the method: as §2
# giant foxtail [7] = experiment: Test A preemergence; assay type: in vivo, Setaria faberii; conditions: for Plant response rating, Foxtail, Giant: 125 g ai/ha, 0 to 100 scale where 0 is no effect and 100 is complete control; for Foxtail, Giant plant response rating: 0 to 100 scale, 0 no effect, 100 complete control, approx. 10 days
# Summary of the method: as §1
# barnyardgrass [8] = experiment: Test A postemergence; assay type: in vivo, Echinochloa crus-galli
# Summary of the method: as §1
# large (Lg) crabgrass [9] = experiment: Test A preemergence; assay type: in vivo, Digitaria sanguinalis; conditions: for Crabgrass, Large plant response rating: 500 g ai/ha, approx. 10 days
# Summary of the method: as §1
# velvetleaf [10] = experiment: Test A preemergence; assay type: in vivo, Abutilon theophrasti; conditions: for Plant response rating, Velvetleaf: 125 g ai/ha, 0 to 100 scale where 0 is no effect and 100 is complete control; for Velvetleaf plant response rating: 0 to 100 scale, 0 no effect, 100 complete control, approx. 10 days
# Summary of the method: as §1
# corn [11] = experiment: Test A postemergence; assay type: in vivo, Zea mays
# Summary of the method: as §1
# large (Lg) crabgrass [12] = experiment: Test A postemergence; assay type: in vivo, Digitaria sanguinalis
# Summary of the method: as §1
# barnyardgrass [13] = experiment: Test A preemergence; assay type: in vivo, Echinochloa crus-galli; conditions: for Barnyardgrass plant response rating: 500 g ai/ha, approx. 10 days
# Summary of the method: as §1
# pigweed [14] = experiment: Test A preemergence; assay type: in vivo, Amaranthus retroflexus; conditions: for Plant response rating, Pigweed: 125 g ai/ha, 0 to 100 scale where 0 is no effect and 100 is complete control; for Pigweed plant response rating: 0 to 100 scale, 0 no effect, 100 complete control, approx. 10 days
# Summary of the method: as §1
# velvetleaf [15] = experiment: Test A postemergence; assay type: in vivo, Abutilon theophrasti
# Summary of the method: as §1
# corn [16] = experiment: Test A preemergence; assay type: in vivo, Zea mays; conditions: for Corn plant response rating: 500 g ai/ha, approx. 10 days
# Summary of the method: as §1
# barnyardgrass [17] = experiment: Test B flooded paddy test; assay type: in vivo, Echinochloa crus-galli; conditions: Flood, 250 g ai/ha; 0 to 100 scale where 0 is no effect and 100 is complete control
# Summary of the method: as §2
# [18] = 125 g ai/ha, 0 to 100 scale where 0 is no effect and 100 is complete control
# [19] = 500 g ai/ha, 0 to 100 scale, 0 no effect, 100 complete control
# [20] = 0 to 100 scale, 0 no effect, 100 complete control
# [21] = 1000 g ai/ha, 0 to 100 scale, 0 no effect, 100 complete control
SMILES,"Plant response rating, Morningglory (morningglory [1])",Morningglory plant response rating (morningglory [1]; 500 g ai/ha),"Plant response rating, Foxtail, Giant (giant foxtail [2]; [18])","Plant response rating, Foxtail, Giant (giant foxtail [2]; [19])","Plant response rating, Rice (rice)","Plant response rating, Morningglory (morningglory [3]; [18])","Plant response rating, Morningglory (morningglory [3]; [19])","Plant response rating, Sedge, Umbrella (sedge, umbrella)","Plant response rating, Wheat (wheat [4])",Wheat plant response rating (wheat [4]; 500 g ai/ha),"Plant response rating, Pigweed (pigweed [5]; [18])","Plant response rating, Pigweed (pigweed [5]; [19])","Plant response rating, Wheat (wheat [6]; [18])","Plant response rating, Wheat (wheat [6]; [19])","Plant response rating, Ducksalad (Heteranthera limosa)","Plant response rating, Foxtail, Giant (giant foxtail [7])","Foxtail, Giant plant response rating (giant foxtail [7]; 500 g ai/ha)","Plant response rating, Barnyardgrass (barnyardgrass [8]; [18])","Plant response rating, Barnyardgrass (barnyardgrass [8]; [19])","Plant response rating, Barnyardgrass (barnyardgrass [17])",other results
COc1ccc(Oc2ncc(Cl)cn2)c(-n2cc(Br)cn2)c1 [Compound 42],0,0,0,30,15,20,40,0,0,0,0,30,0,0,45,10,20,0,0,0,"Plant response rating, Crabgrass, Large (large (Lg) crabgrass [9]; [18]): 10; Crabgrass, Large plant response rating (large (Lg) crabgrass [9]; [20]): 30; Plant response rating, Velvetleaf (velvetleaf [10]): 60; Velvetleaf plant response rating (velvetleaf [10]; 500 g ai/ha): 60; Plant response rating, Corn (corn [11]; [18]): 0; Plant response rating, Corn (corn [11]; [19]): 0; Plant response rating, Crabgrass, Large (large (Lg) crabgrass [12]; [18]): 10; Plant response rating, Crabgrass, Large (large (Lg) crabgrass [12]; [19]): 50; Plant response rating, Barnyardgrass (barnyardgrass [13]; [18]): 0; Barnyardgrass plant response rating (barnyardgrass [13]; [20]): 10; Plant response rating, Pigweed (pigweed [14]): 0; Pigweed plant response rating (pigweed [14]; 500 g ai/ha): 20; Plant response rating, Velvetleaf (velvetleaf [15]; [18]): 60; Plant response rating, Velvetleaf (velvetleaf [15]; [19]): 70; Plant response rating, Corn (corn [16]; [18]): 0; Corn plant response rating (corn [16]; [20]): 0"
Clc1cnc(Oc2ccccc2-n2cnc(Br)n2)nc1 [Compound 46],0,0,0,20,0,20,50,0,0,0,40,80,0,0,0,0,80,0,20,0,"Plant response rating, Crabgrass, Large (large (Lg) crabgrass [9]; [18]): 20; Crabgrass, Large plant response rating (large (Lg) crabgrass [9]; [20]): 100; Plant response rating, Velvetleaf (velvetleaf [10]): 0; Velvetleaf plant response rating (velvetleaf [10]; 500 g ai/ha): 0; Plant response rating, Corn (corn [11]; [18]): 0; Plant response rating, Corn (corn [11]; [19]): 30; Plant response rating, Crabgrass, Large (large (Lg) crabgrass [12]; [18]): 0; Plant response rating, Crabgrass, Large (large (Lg) crabgrass [12]; [19]): 20; Plant response rating, Barnyardgrass (barnyardgrass [13]; [18]): 0; Barnyardgrass plant response rating (barnyardgrass [13]; [20]): 20; Plant response rating, Pigweed (pigweed [14]): 20; Pigweed plant response rating (pigweed [14]; 500 g ai/ha): 90; Plant response rating, Velvetleaf (velvetleaf [15]; [18]): 0; Plant response rating, Velvetleaf (velvetleaf [15]; [19]): 40; Plant response rating, Corn (corn [16]; [18]): 0; Corn plant response rating (corn [16]; [20]): 0"
Fc1ccc(Oc2ncc(Cl)cn2)c(-n2cc(Br)cn2)c1 [Compound 53],,,,,0,,,0,,,,,,,75,,,,,0,"Morningglory plant response rating (morningglory [1]; 1000 g ai/ha): 60; Plant response rating, Foxtail, Giant (giant foxtail [2]; [21]): 80; Plant response rating, Morningglory (morningglory [3]; [21]): 100; Wheat plant response rating (wheat [4]; 1000 g ai/ha): 0; Plant response rating, Pigweed (pigweed [5]; [21]): 100; Plant response rating, Wheat (wheat [6]; [21]): 30; Foxtail, Giant plant response rating (giant foxtail [7]; 1000 g ai/ha): 100; Plant response rating, Barnyardgrass (barnyardgrass [8]; [21]): 90; Plant response rating, Crabgrass, Large (large (Lg) crabgrass [9]; [21]): 100; Velvetleaf plant response rating (velvetleaf [10]; 1000 g ai/ha): 100; Plant response rating, Corn (corn [11]; [21]): 30; Plant response rating, Crabgrass, Large (large (Lg) crabgrass [12]; [21]): 70; Plant response rating, Barnyardgrass (barnyardgrass [13]; [21]): 100; Pigweed plant response rating (pigweed [14]; 1000 g ai/ha): 100; Plant response rating, Velvetleaf (velvetleaf [15]; [21]): 100; Plant response rating, Corn (corn [16]; [21]): 10"
N#Cc1cccc(Oc2ncc(I)cn2)c1-n1cc(Br)cn1 [Compound 60],0,0,20,80,0,10,50,0,0,0,50,100,0,10,0,20,90,20,50,0,"Plant response rating, Crabgrass, Large (large (Lg) crabgrass [9]; [18]): 40; Crabgrass, Large plant response rating (large (Lg) crabgrass [9]; [20]): 100; Plant response rating, Velvetleaf (velvetleaf [10]): 0; Velvetleaf plant response rating (velvetleaf [10]; 500 g ai/ha): 40; Plant response rating, Corn (corn [11]; [18]): 0; Plant response rating, Corn (corn [11]; [19]): 30; Plant response rating, Crabgrass, Large (large (Lg) crabgrass [12]; [18]): 10; Plant response rating, Crabgrass, Large (large (Lg) crabgrass [12]; [19]): 70; Plant response rating, Barnyardgrass (barnyardgrass [13]; [18]): 0; Barnyardgrass plant response rating (barnyardgrass [13]; [20]): 70; Plant response rating, Pigweed (pigweed [14]): 30; Pigweed plant response rating (pigweed [14]; 500 g ai/ha): 100; Plant response rating, Velvetleaf (velvetleaf [15]; [18]): 50; Plant response rating, Velvetleaf (velvetleaf [15]; [19]): 100; Plant response rating, Corn (corn [16]; [18]): 0; Corn plant response rating (corn [16]; [20]): 0"
O=Cc1cccc(Oc2ncc(Cl)cn2)c1-n1cc(Br)cn1 [Compound 61],0,0,0,0,0,0,0,0,0,0,0,0,0,0,0,0,0,0,0,0,"Plant response rating, Crabgrass, Large (large (Lg) crabgrass [9]; [18]): 0; Crabgrass, Large plant response rating (large (Lg) crabgrass [9]; [20]): 20; Plant response rating, Velvetleaf (velvetleaf [10]): 0; Velvetleaf plant response rating (velvetleaf [10]; 500 g ai/ha): 0; Plant response rating, Corn (corn [11]; [18]): 0; Plant response rating, Corn (corn [11]; [19]): 0; Plant response rating, Crabgrass, Large (large (Lg) crabgrass [12]; [18]): 0; Plant response rating, Crabgrass, Large (large (Lg) crabgrass [12]; [19]): 0; Plant response rating, Barnyardgrass (barnyardgrass [13]; [18]): 0; Barnyardgrass plant response rating (barnyardgrass [13]; [20]): 20; Plant response rating, Pigweed (pigweed [14]): 0; Pigweed plant response rating (pigweed [14]; 500 g ai/ha): 30; Plant response rating, Velvetleaf (velvetleaf [15]; [18]): 20; Plant response rating, Velvetleaf (velvetleaf [15]; [19]): 30; Plant response rating, Corn (corn [16]; [18]): 0; Corn plant response rating (corn [16]; [20]): 0"
